Legend:
[1] = system: common (oilseed) sunflower; experiment: Test C pre-/postemergence herbicide test; format: in vivo, Helianthus annuus; settings: preemergence
Text: (§1) Seeds of plant species selected from bermudagrass (Cynodon dactylon (L.) Pers.), Surinam grass (Urochloa decumbens (Staph) R. D. Webster, previously named Brachiaria decumbens Stapf), cocklebur (Xanthium strumarium L.), corn (Zea mays L.), large crabgrass (Digitaria sanguinalis (L.) Scop.), woolly cupgrass (Eriochloa villosa (Thunb.) Kunth), giant foxtail (Setaria faberi Herrm.), goosegrass (Eleusine indica (L.) Gaertn.), johnsongrass (Sorghum halepense (L.) Pers.), kochia (Kochia scoparia (L.) Schrad.), lambsquarters (Chenopodium album L.), morningglory (Ipomoea coccinea L.), eastern black nightshade (Solanum ptycanthum Dunal), yellow nutsedge (Cyperus esculentus L.), pigweed (Amaranthus retroflexus L.), common ragweed (Ambrosia elatior L.), soybean (Glycine max (L.) Merr.), common (oilseed) sunflower (Helianthus annuus L.) and velvetleaf (Abutilon theophrasti Medik.) were planted and treated preemergence with test chemicals formulated in a non-phytotoxic solvent mixture which included a surfactant.
(§2) At the same time, plants selected from these crop and weed species and also winter barley (Hordeum vulgare L.), blackgrass (Alopecurus myosuroides Huds.), canarygrass (Phalaris minor Retz.), chickweed (Stellaria media (L.) Vill.), downy bromegrass (Bromus tectorum L.), green foxtail (Setaria viridis (L.) Beauv.), Italian ryegrass (Lolium multiflorum Lam.), wheat (Triticum aestivum L.), wild oat (Avenafatua L.) and windgrass (Apera spica-venti (L.) Beauv.) were treated with postemergence applications of some of the test chemicals formulated in the same manner. Plants ranged in height from 2 to 18 cm (1- to 4-leaf stage) for postemergence treatments. Plant species in the flooded paddy test consisted of rice (Oryza sativa), smallflower umbrella sedge (Cyperus difformis L.), ducksalad (Heteranthera limosa (Sw.) Willd.) and barnyardgrass (Echinochloa crus-galli (L.) Beauv.) grown to the 2-leaf stage for testing. Treated plants and controls were maintained in a greenhouse for 12 to 14 days, after which time all species were compared to controls and visually evaluated. Plant response ratings, summarized in Table C, are based on a scale of 0 to 100 where 0 is no effect and 100 is complete control. A dash (-) response means no test result.

[2] = system: ducksalad; experiment: Test C flooded paddy test; format: in vivo, Heteranthera limosa; settings: for Plant response rating, Ducksalad: 500 g ai/ha, visual rating after 12 to 14 days
[3] = system: pigweed; experiment: Test C pre-/postemergence herbicide test; format: in vivo, Amaranthus retroflexus
Text: as §1, §2

[4] = system: common ragweed; experiment: Test C pre-/postemergence herbicide test; format: in vivo, Ambrosia elatior; design: key to Plant response rating, Ragweed: 0 = no effect, 100 = complete control
Text: as §1, §2

[5] = system: large crabgrass; experiment: Test C pre-/postemergence herbicide test; format: in vivo, Digitaria sanguinalis
Text: as §1, §2

[6] = system: lambsquarters; experiment: Test C pre-/postemergence herbicide test; format: in vivo, Chenopodium album
Text: as §1, §2

[7] = 62 g ai/ha, scale 0 to 100 (0 no effect, 100 complete control)
[8] = 250 g ai/ha, scale of 0 to 100, 0 is no effect, 100 is complete control
[9] = scale 0 to 100 (0 no effect, 100 complete control)
[10] = 31 g ai/ha, preemergence, scale 0 to 100
[11] = 125 g ai/ha, scale 0 (no effect) to 100 (complete control), visual, 12 to 14 days, preemergence
[12] = 125 g ai/ha, scale 0 to 100 (0 no effect, 100 complete control)
[13] = 62 g ai/ha, preemergence, scale 0 to 100
[14] = 250 g ai/ha, scale 0-100, preemergence
[15] = 500 g ai/ha, scale 0 to 100 (0 no effect, 100 complete control), visual, 12 to 14 days, preemergence
[16] = Postemergence, 250 g ai/ha, scale 0 to 100, 0 no effect, 100 complete control
[17] = postemergence, 125 g ai/ha, scale 0 to 100
[18] = postemergence, 62 g ai/ha, scale 0 to 100
[19] = Postemergence, 500 g ai/ha, scale 0 to 100, 0 no effect, 100 complete control

| Structure (SMILES) | Ducksalad plant response rating [2, 7] | Ducksalad plant response rating [2, 8] | Plant response rating, Ducksalad [2, 9] | Plant response rating, Pigweed [3, 11] | Plant response rating, Crabgrass, Large [5, 11] | Ducksalad plant response rating [2, 12] | Plant response rating, Lambsquarters [6, 16] | Plant response rating, Lambsquarters [6, 17] | Plant response rating, Lambsquarters [6, 18] | Plant response rating, Pigweed [3, 16] | Plant response rating, Pigweed [3, 18] | Plant response rating, Ragweed [4, 16] | Plant response rating, Ragweed [4, 17] | Plant response rating, Ragweed [4, 18] | Plant response rating, Crabgrass, Large [5, 16] | Plant response rating, Crabgrass, Large [5, 17] | further results |
| --- | --- | --- | --- | --- | --- | --- | --- | --- | --- | --- | --- | --- | --- | --- | --- | --- | --- |
| CCOC(=O)c1cc(NC(=O)c2cc(C(C)(C)C)nn2CC)ccc1OCC [Compound 95] | 10 | 75 | 90 | 100 | 100 |  |  |  |  |  |  |  |  |  |  |  | Plant response rating, Sunflower ([1]; 31 g ai/ha, scale 0 to 100): 0; Plant response rating (0 = no effect, 100 = complete control), Sunflower ([1]; 62 g ai/ha): 0; Plant response rating, Sunflower ([1]; 125 g ai/ha, scale 0 (no effect) to 100 (complete control), visual, 12 to 14 days): 0; Ducksalad plant response rating ([2]; 125 g ai/ha, scale of 0 to 100, 0 is no effect, 100 is complete control): 25; Plant response rating, Pigweed [3, 10]: 100; Plant response rating (0 = no effect, 100 = complete control), Pigweed ([3]; 62 g ai/ha, preemergence): 100; Plant response rating, Ragweed [4, 10]: 10; Plant response rating (0 = no effect, 100 = complete control), Ragweed ([4]; 62 g ai/ha, preemergence): 50; Plant response rating, Ragweed [4, 11]: 80; Plant response rating, Crabgrass, Large [5, 10]: 10; Plant response rating (0 = no effect, 100 = complete control), Crabgrass, Large ([5]; 62 g ai/ha, preemergence): 80; Plant response rating, Crabgrass, Large ([5]; 250 g ai/ha, scale 0 to 100 (0 no effect, 100 complete control), visual, 12 to 14 days, preemergence): 100 |
| CCn1nc(C(C)(C)C)cc1C(=O)Nc1cc(C(=O)N(C)OC)ccc1F [Compound 244] | 25 | 85 | 95 | 100 | 100 | 85 |  |  |  |  |  |  |  |  |  |  | Plant response rating, Sunflower ([1]; 62 g ai/ha, scale 0 to 100): 0; Plant response rating, Sunflower ([1]; 250 g ai/ha, scale 0-100): 15; Plant response rating, Sunflower ([1]; 500 g ai/ha, scale 0 to 100 (0 no effect, 100 complete control), visual, 12 to 14 days): 20; Plant response rating, Pigweed [3, 13]: 100; Plant response rating, Pigweed [3, 14]: 100; Plant response rating, Pigweed [3, 15]: 100; Plant response rating, Ragweed [4, 13]: 95; Plant response rating, Ragweed [4, 14]: 100; Plant response rating, Ragweed [4, 15]: 100; Plant response rating, Crabgrass, Large [5, 13]: 100; Plant response rating, Crabgrass, Large [5, 14]: 100; Plant response rating, Crabgrass, Large [5, 15]: 100 |
| CCOC(=O)c1cccc(NC(=O)c2cc(C3(C)CC3)nn2CC)c1 [Compound 295] |  | 25 | 30 |  |  | 0 | 50 | 5 | 0 | 95 | 80 | 40 | 30 | 25 | 35 | 30 | Ducksalad plant response rating ([2]; 62 g ai/ha, scale 0 to 100): 0 |
| CCn1nc(C(C)(C)C)cc1C(=O)Nc1cc(OC(F)(F)F)ccc1F [Compound 338] |  |  |  |  |  |  | 75 | 5 | 0 | 80 | 0 | 5 | 5 | 0 | 10 | 5 | Plant response rating, Lambsquarters [6, 19]: 75; Plant response rating, Pigweed [3, 19]: 80; Plant response rating, Pigweed [3, 17]: 5; Plant response rating, Ragweed [4, 19]: 10; Plant response rating, Crabgrass, Large [5, 19]: 15; Plant response rating, Crabgrass, Large [5, 18]: 0 |
